# No end group written: not given here.
# Target: T1, human Rb construct (residues 53-787) binding Human E2F1 transactivation domain (Homo sapiens, UniProt P06400, DEL245-267/DEL582-642/S780A)
# T1 construct: a human Rb construct (residues 53-787, delta245-267, delta582-642, S780A); made in house; host or cells: E. coli
# T1 sequence (P06400 with tags, fused parts or gaps DEL245-267/DEL582-642/S780A): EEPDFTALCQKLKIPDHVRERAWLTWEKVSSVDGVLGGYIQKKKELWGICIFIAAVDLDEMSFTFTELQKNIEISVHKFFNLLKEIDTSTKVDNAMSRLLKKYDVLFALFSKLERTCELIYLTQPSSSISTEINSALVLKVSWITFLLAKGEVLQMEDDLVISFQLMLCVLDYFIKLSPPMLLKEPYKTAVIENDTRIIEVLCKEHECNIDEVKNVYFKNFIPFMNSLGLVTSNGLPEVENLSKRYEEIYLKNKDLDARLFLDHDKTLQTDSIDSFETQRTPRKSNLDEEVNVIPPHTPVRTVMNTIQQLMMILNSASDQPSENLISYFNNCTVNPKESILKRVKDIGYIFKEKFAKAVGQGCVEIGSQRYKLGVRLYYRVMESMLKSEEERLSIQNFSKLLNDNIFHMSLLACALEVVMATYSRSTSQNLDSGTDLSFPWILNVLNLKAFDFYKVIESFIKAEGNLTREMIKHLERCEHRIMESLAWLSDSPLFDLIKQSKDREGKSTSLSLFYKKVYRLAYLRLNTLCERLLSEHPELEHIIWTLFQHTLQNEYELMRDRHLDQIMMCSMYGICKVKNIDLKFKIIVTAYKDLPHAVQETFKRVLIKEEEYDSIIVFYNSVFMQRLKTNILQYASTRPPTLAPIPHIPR
# Experiment: Isothermal titration calorimetry of E2F binding to Rb (Rb activity)
# Conditions: in vitro, phosphorylated Rb
# Excerpt: The inventors have developed an assay for measuring the degree of binding between Rb and E2F. Rb inactivation corresponds to E2F binding inhibition. If you can prevent E2F binding to Rb, then you inactivate Rb, its tumor suppressing action decreases and the cell cycle continues from G1 to S and unregulated cell division occurs. Inactivation occurs upon Rb phosphorylation by Cdk. The inventors have discovered that in the presence of ‘LxCxE’ peptide, E2F inhibition is prevented upon phosphorylation.
# The […] peptide was made synthetically using standard peptide synthesis. Human E2F1 transactivation domain (residues […]) and a human Rb construct (residues 53-787, delta245-267, delta582-642, S780A) were produced recombinantly in E. coli and purified to homogeneity. Rb was phosphorylated with recombinant Cdk as described.
# Rb activity, defined as its ability to bind E2F, was assayed by isothermal titration calorimetry to measure quantitatively E2F binding affinity. About 50 micromolar (μm) Rb was used in the calorimetry cell and E2F was titrated in at a concentration of ˜1 mM. Standard protocols were used to determine Kd. In the experiment with the […] peptide, the peptide was first added to the cell before E2F to saturate Rb.
sequence,measurement,value
"DLYCYEQLN [DLYCYEQLN peptide, DLYCYEQLN]",inhibition of Rb inactivation (effect of phosphorylation on E2F-Rb binding),inhibits the weakening effect of phosphorylation on E2F-Rb binding

# Reference: patent US9365621B2, “Method for preventing neoplastic transformation by inhibition of retinoblastoma protein inactivation” (The Regents of the University of California, priority 2012, dated 2016)
